The results in this text go back to patent US9801956B2, “PSMA-targeted NIR dyes and their uses” (On Target Laboratories, LLC, priority 2015, dated 2017).

The target of this assay is T1, PSMA (Homo sapiens, UniProt Q04609).
T1 construct: PSMA-positive 22Rv1 human prostate cancer cells; endogenous in cells; host or cells: 22Rv1 human prostate cancer cells
The assay is described as follows: Relative binding affinity of DUPA-NIR conjugates versus 100 nM DUPA-FITC (14) on PSMA-positive 22Rv1 human prostate cancer cells, flow cytometry. Particulars: PSMA-positive 22Rv1 cells, 1 h at 37° C., 100 nM DUPA-FITC competitor. Here is the method: FIG. 3—Relative binding affinities of DUPA-NIR conjugates 1-9 with respect to DUPA-FITC (14). PSMA-positive 22Rv1 human prostate cancer cells were incubated for 1 h at 37° C. in the presence of 100 nM DUPA-FITC with increasing concentrations of DUPA-NIR conjugates. […] Cell bound fluorescence was assayed as using flow cytometry.
FIG. 6—Relative binding affinities of DUPA-NIR conjugates with aromatic amino acids linkers with respect to DUPA-FITC (14). PSMA-positive 22Rv1 human prostate cancer cells were incubated for 1 h at 37° C. in the presence of 100 nM DUPA-FITC with increasing concentrations of DUPA-NIR conjugates. […] Cell bound fluorescence was assayed as using flow cytometry.
FIG. 14—Relative binding affinities of DUPA-NIR conjugates with respect to DUPA-FITC (14). PSMA-positive 22Rv1 human prostate cancer cells were incubated for 1 h at 37° C. in the presence of 100 nM DUPA-FITC with increasing concentrations of DUPA-NIR conjugates. […] Cell bound fluorescence was assayed as using flow cytometry.
PSMA-positive 22Rv1 human prostate cancer cells were incubated for 1 h at 37° C. in the presence of 100 nM DUPA-FITC with increasing concentrations of DUPA-NIR conjugates. […] Cell bound fluorescence was assayed as using flow cytometry.
FIG. 23—Relative binding affinities of DUPA-NIR conjugates with respect to DUPA-FITC (14). […] Cell bound fluorescence was assayed as using flow cytometry.
FIG. 31—Relative binding affinities of DUPA-NIR conjugates with respect to DUPA-FITC (14). […] Cell bound fluorescence was assayed as using flow cytometry.
FIG. 36—Relative binding affinities of PSMA-targeted NIR conjugates with respect to DUPA-FITC (14). […] Cell bound fluorescence was assayed as using flow cytometry.
FIG. 3 Relative binding affinities of DUPA-NIR conjugates 1-9 with respect to DUPA-FITC (14). […] Cell bound fluorescence was assayed as using flow cytometry.
FIG. 24: Relative binding affinities of DUPA-NIR conjugates with respect to DUPA-FITC (14). […] Cell bound fluorescence was assayed as using flow cytometry. […]
Background: A flow cytometer gives signals particle by particle.

Structures are written as SMILES. pKd: −log10 of the molar value.

T1 sequence (Q04609 whole entry): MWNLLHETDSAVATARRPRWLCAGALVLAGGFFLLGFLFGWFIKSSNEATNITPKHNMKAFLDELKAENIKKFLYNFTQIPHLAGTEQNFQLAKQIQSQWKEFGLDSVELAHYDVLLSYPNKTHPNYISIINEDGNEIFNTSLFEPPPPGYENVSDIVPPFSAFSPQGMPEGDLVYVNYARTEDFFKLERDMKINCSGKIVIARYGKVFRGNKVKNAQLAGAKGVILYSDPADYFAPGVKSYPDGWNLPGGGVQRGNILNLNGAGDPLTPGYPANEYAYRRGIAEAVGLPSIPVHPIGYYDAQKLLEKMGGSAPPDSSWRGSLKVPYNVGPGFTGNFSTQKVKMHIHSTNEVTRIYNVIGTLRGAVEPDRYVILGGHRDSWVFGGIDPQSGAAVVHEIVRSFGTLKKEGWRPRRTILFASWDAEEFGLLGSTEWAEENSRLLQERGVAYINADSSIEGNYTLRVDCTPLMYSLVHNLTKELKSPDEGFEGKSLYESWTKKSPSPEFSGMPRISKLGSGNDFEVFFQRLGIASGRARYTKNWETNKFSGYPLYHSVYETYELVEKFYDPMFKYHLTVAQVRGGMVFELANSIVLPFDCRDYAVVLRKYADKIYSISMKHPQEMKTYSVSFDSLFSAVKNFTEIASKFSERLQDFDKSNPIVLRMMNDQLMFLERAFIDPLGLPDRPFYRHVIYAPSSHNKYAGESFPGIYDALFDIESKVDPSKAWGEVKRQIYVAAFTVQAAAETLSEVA

Compound `CC1(C)C(=CC=C2CCOC(C=CC3=[N+](CCCCS(=O)(=O)[O-])c4ccc(S(=O)(=O)O)cc4C3(C)C)=C2c2ccc(C(=O)NCCNC(=O)C(Cc3ccccc3)NC(=O)CCCCCCCNC(=O)CCC(NC(=O)NC(CCC(=O)O)C(=O)O)C(=O)O)cc2)N(CCCCS(=O)(=O)O)c2ccc(S(=O)(=O)O)cc21` (stereo not drawn) [Compound 62] had a negative-log Kd (pKd) of 6.85.

On to `CC1(C)C(=CC=C2CCCC(C=CC3=[N+](CCCCS(=O)(=O)[O-])c4ccccc4C3(C)C)=C2SCC(NC(=O)C(Cc2ccccc2)NC(=O)C(Cc2ccccc2)NC(=O)CCCCCCCNC(=O)CCC(NC(=O)NC(CCC(=O)O)C(=O)O)C(=O)O)C(=O)O)N(CCCCS(=O)(=O)O)c2ccccc21` (stereo not drawn) [Compound 64], for which the negative-log Kd (pKd) is 6.50.

`CC1(C)C(=CC=C2CCCC(C=CC3=[N+](CCCCS(=O)(=O)[O-])c4ccccc4C3(C)C)=C2Oc2ccc(CC(NC(=O)C(CCCNC(=N)N)NC(=O)C(Cc3ccccc3)NC(=O)CCCCCCCNC(=O)CCC(NC(=O)NC(CCC(=O)O)C(=O)O)C(=O)O)C(=O)O)cc2)N(CCCCS(=O)(=O)O)c2ccccc21` (stereo not drawn) [Compound 65] showed a pKd of 6.01.

Usually pKd stands for the negative decadic logarithm of the Kd, by convention in mol/L. Lower therefore signals a high Kd.
